For experiment [1], the system named is Staphylococcus aureus. Briefly: Antibacterial activity against MRSA 5038.
Experiment [2] is filed under the species Mus musculus. Nature of the experiment: Antibacterial activity against mice infected with Staphylococcus aureus Smith challenged with a dose of 1.32*10e7 cells/mouse. The format is functional.
Experiment [3] is filed under the species Mus musculus. Briefly: Antibacterial activity against mice infected with Escherichia coli No.29 challenged with a dose of 1.35*10e6 cells/mouse. The format is functional.
Experiment [4] concerns Escherichia coli. Nature of the experiment: Antibacterial activity against gram- negative Escherichia coli NIHJ JC-2. In kind it is functional.
Experiment [5] concerns Staphylococcus aureus. Briefly: Antibacterial activity against gram- positive Staphylococcus aureus FDA 209P. The format is functional.
Experiment [6] has as its system Pseudomonas aeruginosa. Briefly: Antibacterial activity against gram- negative Pseudomonas […] ATCC 10145. In kind it is functional.
The subject of experiment [7] is Staphylococcus aureus. Nature of the experiment: Antibacterial activity against gram- positive Staphylococcus aureus MRSA 57. The format is functional.
The species named for experiment [8] is Mus musculus. Nature of the experiment: Antibacterial activity against mice infected with MRSA 5038 challenged with a dose of 1*10e7 cells/mouse. The format is functional.
The subject of experiment [9] is Escherichia coli. Nature of the experiment: Antibacterial activity against Escherichia coli No.29.
Experiment [10] relates to Staphylococcus aureus. Briefly: Antibacterial activity against MRSA 5129.
Experiment [11] has as its system Staphylococcus aureus. Briefly: Antibacterial activity against Staphylococcus aureus Smith.
The species named for experiment [12] is Mus musculus. Nature of the experiment: Antibacterial activity against mice infected with MRSA 5129 challenged with a dose of 1.31*10e8 cells/mouse. In kind it is functional.
Experiment [13] deals with Pseudomonas aeruginosa. Briefly: Antibacterial activity against gram- negative Pseudomonas aeruginosa ATCC 10145. The format is functional.
In experiment [14] the test system is Escherichia coli. Briefly: Antibacterial activity against Escherichia coli No.29. The source holds these as a separate data set.
Experiment [15] is filed under the species Mus musculus. Nature of the experiment: Antibacterial activity against mice infected with Staphylococcus aureus Smith. In kind it is functional.
Experiment [16] is filed under the species Mus musculus. Nature of the experiment: Antibacterial activity against mice infected with MRSA 5120 challenged with a dose of 7.6*10e7 cells/mouse. In kind it is functional.
The subject of experiment [17] is Staphylococcus aureus. Nature of the experiment: Antibacterial activity against Staphylococcus aureus Smith. This is another data set of the same source.
Experiment [18] is filed under the species Mus musculus. Briefly: Antibacterial activity against mice infected with Escherichia coli No.29. In kind it is functional.
For experiment [19], the system named is Staphylococcus aureus. Briefly: Antibacterial activity against gram- positive Staphylococcus aureus Methicillin resistant Staphylococcus aureus 57. The format is functional.
In experiment [20] the test system is Staphylococcus aureus. Nature of the experiment: microbe, parasite or virus in culture.
Description: Antibacterial activity against Methicillin resistant Staphylococcus aureus 5120
For experiment [21], the system named is Staphylococcus aureus. Briefly: microbe, parasite or virus in culture. The source holds these as a separate data set.
Description: Antibacterial activity against Methicillin resistant Staphylococcus aureus 5129
Experiment [22] relates to Staphylococcus aureus. Briefly: microbe, parasite or virus in culture. The source holds these as a separate data set.
Description: Antibacterial activity against Methicillin resistant Staphylococcus aureus 5038
Experiment [23] has as its system Pseudomonas aeruginosa. Nature of the experiment: Antibacterial activity against Pseudomonas aeruginosa ATCC 10145. In kind it is functional.
Experiment [24] has as its system Staphylococcus aureus. Briefly: Antibacterial activity against Staphylococcus aureus Smith.
The subject of experiment [25] is Escherichia coli. Nature of the experiment: Antibacterial activity against Escherichia coli NIHJ JC-2. The format is functional.
For experiment [26], the species on record is Mus musculus. Briefly: Antibacterial activity against mice infected with MRSA 5038. In kind it is functional.

In brackets after ≈: the same amount, converted by molar mass.

On to `C[n+]1ccc(SCC2=C(C(=O)O)N3C(=O)[C@@H](NC(=O)/C(=N/OC4CCCC4)c4csc(N)n4)[C@H]3CO2)cc1.O=S(=O)([O-])O`, for which the MIC in [1] amounted to 3.13 µg/mL; in experiment [4], 0.39 µg/mL; in [5], 0.05 µg/mL; in experiment [6] it was 3.13 µg/mL; in experiment [7], 3.13 µg/mL; in experiment [9], 0.39 µg/mL. The results for the MIC in experiment [10] and in experiment [11] were 6.25 µg/mL and 0.39 µg/mL, respectively. For the same compound, the ED50 (usually the dose that gives a 50% effect, or the effect in half of the subjects) in experiment [2] is 0.08 mg/kg; in experiment [3], 0.09 mg/kg; in experiment [8] it was 3.4 mg/kg; in experiment [12], 3.91 mg/kg.

With `CO/N=C(/C(=O)N[C@@H]1C(=O)N2C(C(=O)O)=C(CSc3cc[n+](C)cc3)OC[C@H]12)c1csc(N)n1.O=S(=O)([O-])O`, the MIC was below 0.025 µg/mL in experiment [4], 0.2 µg/mL in [5], 50 µg/mL in experiment [7] and 6.25 µg/mL in experiment [13].

Take `CCC(=O)C[n+]1ccc(SCC2=C(C(=O)O)N3C(=O)[C@@H](NC(=O)/C(=N/OC4CCCC4)c4csc(N)n4)[C@H]3CO2)cc1.O=S(=O)([O-])O`: the MIC was found to be 0.39 µg/mL in experiment [14]; 0.39 µg/mL in experiment [4]; 0.2 µg/mL in [5]; 6.25 µg/mL in experiment [7]; 0.2 µg/mL in experiment [17]; 6.25 µg/mL in experiment [13]. Further, the median effective dose (ED50) in experiment [15] worked out at 0.22 mg/kg; in experiment [16], 1 mg/kg; in experiment [18], 0.15 mg/kg.

For `CO/N=C(/C(=O)N[C@@H]1C(=O)N2C(C(=O)O)=C(CSc3cc[n+](CC(C)=O)cc3)OC[C@H]12)c1csc(N)n1.O=S(=O)([O-])O`, the MIC in [4] was below 0.025 µg/mL; in experiment [5], 0.39 µg/mL; in [7] it was 100 µg/mL; in experiment [13] it was 12.5 µg/mL.

Turning to `CO[C@@]1(NC(=O)CSC(F)F)C(=O)N2C(C(=O)O)=C(CSc3nnnn3CCO)CO[C@@H]21` [FLOMOXEF], the MIC in experiment [14] is 0.1 µg/mL (≈ 0.201 µM); in experiment [4], 0.1 µg/mL (≈ 0.201 µM); in [5] it was 0.2 µg/mL (≈ 0.403 µM); in experiment [17], 0.39 µg/mL (≈ 0.786 µM); in [19], 25 µg/mL (≈ 50.4 µM); in [13], above 100 µg/mL. The 50% effect level in experiment [18] (ED50) was put at a dose of 0.43 mg/kg.

As to `CN[C@H](CC(C)C)C(=O)N[C@H]1C(=O)N[C@@H](CC(N)=O)C(=O)N[C@H]2C(=O)N[C@H]3C(=O)N[C@H](C(=O)N[C@H](C(=O)O)c4cc(O)cc(O)c4-c4cc3ccc4O)[C@H](O)c3ccc(c(Cl)c3)Oc3cc2cc(c3O[C@@H]2O[C@H](CO)[C@@H](O)[C@H](O)[C@H]2O[C@H]2C[C@](C)(N)[C@H](O)[C@H](C)O2)Oc2ccc(cc2Cl)[C@H]1O` [VANCOMYCIN], the MIC in [20] is 0.78 µg/mL (≈ 0.538 µM); in experiment [21] it was 0.78 µg/mL (≈ 0.538 µM); in [22], 1.56 µg/mL (≈ 1.08 µM); in [23] it was above 100 µg/mL; in experiment [24], 0.78 µg/mL (≈ 0.538 µM); in experiment [25] it was above 100 µg/mL. The compound further displayed an ED50 in [26] of 2.7 mg/kg.

The values are drawn from ChEMBL document CHEMBL1150475, “Synthesis and biological activity of new optically active 2-oxaisocephems: 3-(N-alkylpyridinium-4-thio)methyl derivatives” (1994).
